The source of these data is ChEMBL document CHEMBL5729370 (2022).

This assay concerns the target T1, Mitogen-activated protein kinase kinase kinase 5 (Homo sapiens, UniProt Q99683).
T1 sequence (Q99683 whole entry): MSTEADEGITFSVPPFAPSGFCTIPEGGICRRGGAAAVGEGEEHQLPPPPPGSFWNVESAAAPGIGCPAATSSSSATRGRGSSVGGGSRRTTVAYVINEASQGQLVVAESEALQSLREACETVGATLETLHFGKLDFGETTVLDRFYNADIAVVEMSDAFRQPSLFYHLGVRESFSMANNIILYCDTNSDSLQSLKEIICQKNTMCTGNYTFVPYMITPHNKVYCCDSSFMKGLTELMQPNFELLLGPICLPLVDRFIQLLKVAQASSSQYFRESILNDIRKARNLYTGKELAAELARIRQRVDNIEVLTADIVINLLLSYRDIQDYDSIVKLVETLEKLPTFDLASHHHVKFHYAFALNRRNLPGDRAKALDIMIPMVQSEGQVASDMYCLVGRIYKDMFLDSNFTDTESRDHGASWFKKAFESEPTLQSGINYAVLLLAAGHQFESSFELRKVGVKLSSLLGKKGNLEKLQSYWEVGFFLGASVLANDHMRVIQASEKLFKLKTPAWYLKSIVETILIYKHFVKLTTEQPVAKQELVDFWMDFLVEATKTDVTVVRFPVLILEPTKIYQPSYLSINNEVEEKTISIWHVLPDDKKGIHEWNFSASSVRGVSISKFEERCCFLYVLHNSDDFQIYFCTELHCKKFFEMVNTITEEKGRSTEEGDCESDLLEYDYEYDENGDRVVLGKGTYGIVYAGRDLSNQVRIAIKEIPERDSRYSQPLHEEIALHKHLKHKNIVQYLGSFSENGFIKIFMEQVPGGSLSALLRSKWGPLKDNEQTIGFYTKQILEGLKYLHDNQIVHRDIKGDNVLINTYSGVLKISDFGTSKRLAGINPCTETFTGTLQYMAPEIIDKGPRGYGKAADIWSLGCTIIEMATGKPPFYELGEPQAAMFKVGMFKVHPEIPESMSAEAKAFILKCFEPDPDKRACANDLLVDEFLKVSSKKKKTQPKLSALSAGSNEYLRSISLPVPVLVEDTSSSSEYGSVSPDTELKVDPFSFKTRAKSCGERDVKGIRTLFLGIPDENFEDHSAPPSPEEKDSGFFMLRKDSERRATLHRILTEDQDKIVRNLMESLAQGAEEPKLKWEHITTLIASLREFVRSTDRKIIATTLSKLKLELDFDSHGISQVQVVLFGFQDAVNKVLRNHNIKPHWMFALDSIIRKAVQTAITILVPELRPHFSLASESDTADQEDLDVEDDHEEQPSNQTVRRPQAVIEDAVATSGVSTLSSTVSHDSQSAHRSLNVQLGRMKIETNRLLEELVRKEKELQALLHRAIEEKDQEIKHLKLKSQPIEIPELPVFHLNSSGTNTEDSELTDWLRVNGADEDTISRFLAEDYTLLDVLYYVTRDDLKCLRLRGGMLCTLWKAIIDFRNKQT
Nature of the assay: HTRF KinEASE Assay: ASK1 was purchased from Thermofisher (Catalogue #PV4011), ATP was purchased from Sigma (Catalogue #A7699), HTRF® KinEASE™ Assay System was obtained from Cisbio (Bedford, Mass.). ½ Area plate was purchased from Perkin Elmer (Catalogue ##6005560). HTRF® KinEASE™-STK is a generic method for measuring serine/threonine kinase activities using a time-resolved fluorescence resonance energy transfer (TR-FRET) immunoassay. The IC50 value for each compound was determined in the presence of compound (various concentration from 0 to 10 μM) and a fixed amount of ATP and peptide substrates. The test compound, 1 μM STK3 peptide substrate, and 5 μM of ASK1 kinase are incubated with kinase reaction buffer containing 50 mM HEPES Ph 7.5, 0.01% BRIJ-35, 10 mM MgCl2, and 1 mM EGTA for 30 minutes. 100 μM ATP is added to start kinase reaction and incubated for 3 hours. The STK3-antibody labeled with Eu3+-Cryptate and 125 nM streptavidin-XL665 are mixed in a single addition with stop reagents provided by the Cisbio kit used to stop the kinase reaction. Fluorescence is detected using an Envision Multilabeled 2014 reader from PerkinElmer. The Fluorescence is measured at 615 nm (Cryptate) and 665 nm (XL665) and a ratio of 665 nm/615 nm is calculated for each well. The resulting TR-FRET is proportional to the phosphorylation level. Staurosporine was used as the positive control. IC50 was determined by Xlfit 5.3. It is filed as single protein.
For orientation: IC50 means the concentration needed to halve the response being measured. Regarding `CCOC(=O)N1CCc2cc(OC)c(C(=O)Nc3cccc(-c4nnc5n4[C@H](C)CC5)n3)cc2C1`, the IC50 was below 1.25 nM.
On to `CCOC(=O)N1CCc2cnc(C(=O)Nc3cccc(-c4nnc5n4CCCC5)n3)cc2C1`, for which the IC50 was above 1000 nM.
Regarding `CCOC(=O)N1CCc2cc(F)c(C(=O)Nc3cccc(-c4nnc5n4CCCC5)n3)cc2C1`, the IC50 is above 1000 nM.
Regarding `CCOC(=O)N1CCc2cc(OC)c(C(=O)Nc3cccc(-c4nnc5n4C(C)(C)CC5)n3)cc2C1`, the IC50 was below 1.25 nM.
Turning to `CCOC(=O)N1CCc2cc(OC)c(C(=O)Nc3cccc(-c4nnc5n4CCCC5)n3)cc2C1`, the IC50 was 10 to 100 nM.
